Calls of active or inactive are those of the source. The calls are words filed in the database; no cut-off is given here.
Key:
Escherichia coli = assay: Antimicrobial activity against ESBL-producing Escherichia coli ATCC 35218 assessed as inhibition of microbial growth incubated for 16 hrs by broth microdilution method; type: functional; conditions: ATCC 35218, 16 h
Acinetobacter baumannii = assay: Antimicrobial activity against Acinetobacter baumannii ATCC 19606 assessed as inhibition of microbial growth incubated for 16 hrs by broth microdilution method; type: functional; conditions: ATCC 19606, 16 h
Pseudomonas aeruginosa = assay: Antimicrobial activity against Pseudomonas aeruginosa ATCC 15442 assessed as inhibition of microbial growth incubated for 16 hrs by broth microdilution method; type: functional; conditions: ATCC 15442, 16 h
Klebsiella pneumoniae = assay: Antimicrobial activity against Klebsiella pneumoniae ATCC 700603 assessed as inhibition of microbial growth incubated for 16 hrs by broth microdilution method; type: functional; conditions: Klebsiella pneumoniae, 700603, 16 h
Staphylococcus aureus = assay: Antimicrobial activity against methicillin-resistant Staphylococcus aureus ATCC 43300 assessed as inhibition of microbial growth incubated for 16 hrs by broth microdilution method; type: functional; conditions: ATCC 43300, 16 h
Enterococcus faecalis = assay: Antimicrobial activity against Enterococcus faecalis ATCC 29212 assessed as inhibition of microbial growth incubated for 16 hrs by broth microdilution method; type: functional; conditions: ATCC 29212, 16 h
Candida albicans [1] = assay: Antimicrobial activity against Candida albicans ATCC 10231 assessed as inhibition of microbial growth incubated for 16 hrs by broth microdilution method; type: functional; conditions: ATCC 10231, 16 h
Candida albicans [2] = assay: Induction of morphological changes in Candida albicans ATCC 10231 assessed as induction of agglutination in cytoplasm at 8 ug/ml incubated for 12 hrs by transmission electron microscopy; type: functional, organism-based
Candida albicans [3] = assay: Induction of morphological changes in Candida albicans ATCC 10231 assessed as induction of cell wall thinning at 8 ug/ml incubated for 12 hrs by transmission electron microscopy; type: functional, organism-based
Candida albicans [4] = assay: Induction of morphological changes in Candida albicans ATCC 10231 assessed as induction of deformed cells at 8 ug/ml incubated for 12 hrs by transmission electron microscopy; type: functional, organism-based
Candida albicans [5] = assay: Induction of morphological changes in Candida albicans ATCC 10231 assessed as induction of wrinkled cells at 8 ug/ml incubated for 12 hrs by transmission electron microscopy; type: functional, organism-based
Candida albicans [6] = assay: Induction of morphological changes in Candida albicans ATCC 10231 assessed as induction of irregular cell shape at 8 ug/ml incubated for 12 hrs by transmission electron microscopy; type: functional, organism-based
Candida albicans [7] = assay: Induction of morphological changes in Candida albicans ATCC 10231 assessed as induction of cell wall deformation at 16 ug/ml incubated for 12 hrs by transmission electron microscopy; type: functional, organism-based
Candida albicans [8] = assay: Induction of morphological changes in Candida albicans ATCC 10231 assessed as induction of cell membrane deformation at 16 ug/ml incubated for 12 hrs by transmission electron microscopy; type: functional, organism-based
Candida albicans [9] = assay: Induction of morphological changes in Candida albicans ATCC 10231 assessed as induction of vacuoles formation in cytoplasm at 16 ug/ml incubated for 12 hrs by transmission electron microscopy; type: functional, organism-based
Candida albicans [10] = assay: Induction of morphological changes in Candida albicans ATCC 10231 assessed as induction of cell contents leakage at 16 ug/ml incubated for 12 hrs by transmission electron microscopy; type: functional, organism-based

SMILES | MIC (Escherichia coli) | MIC (Acinetobacter baumannii) | MIC (Pseudomonas aeruginosa) | MIC (Klebsiella pneumoniae) | MIC (Staphylococcus aureus) | MIC (Enterococcus faecalis) | MIC (Candida albicans [1]) | Activity (Candida albicans [2]) | Activity (Candida albicans [3]) | Activity (Candida albicans [4]) | Activity (Candida albicans [5]) | Activity (Candida albicans [6]) | Activity (Candida albicans [7]) | Activity (Candida albicans [8]) | Activity (Candida albicans [9]) | Activity (Candida albicans [10])
C/C1=C\[C@H](O)[C@H](O)C/C(C)=C/[C@@]2(C)OC(=O)C=C(C(C)C)[C@@H]2CC1 | ≥ 100 µg/mL | ≥ 100 µg/mL | ≥ 100 µg/mL | ≥ 100 µg/mL | ≥ 100 µg/mL | ≥ 100 µg/mL | ≥ 100 µg/mL | – | – | – | – | – | – | – | – | –
C/C1=C\[C@H](O)C[C@]2(C)O[C@H]2C[C@@]2(C)C(=O)C=C(C(C)C)[C@@H]2CC1 | ≥ 100 µg/mL | ≥ 100 µg/mL | ≥ 100 µg/mL | ≥ 100 µg/mL | ≥ 100 µg/mL | ≥ 100 µg/mL | ≥ 100 µg/mL | – | – | – | – | – | – | – | – | –
C/C1=C\[C@H](O)C[C@]2(C)O[C@H]2C[C@@]2(C)OC(=O)C=C(C(C)C)[C@@H]2CC1 | ≥ 100 µg/mL | 16 µg/mL | ≥ 100 µg/mL | ≥ 100 µg/mL | ≥ 100 µg/mL | ≥ 32 µg/mL | ≥ 100 µg/mL | – | – | – | – | – | – | – | – | –
NCC[C@H](O)C(=O)N[C@@H]1C[C@H](N)[C@@H](O[C@H]2O[C@H](CN)[C@@H](O)[C@H](O)[C@H]2O)[C@H](O)[C@H]1O[C@H]1O[C@H](CO)[C@@H](O)[C@H](N)[C@H]1O [AMIKACIN] | 4 µg/mL | 2 µg/mL | 2 µg/mL | 8 µg/mL | – | – | – | – | – | – | – | – | – | – | – | –
CC(=O)C[C@H]1/C=C(\C)[C@@H](O)C[C@H]2C(C(C)C)=CC(=O)O[C@]2(C)CC[C@@H](C)C1=O | ≥ 100 µg/mL | ≥ 100 µg/mL | ≥ 100 µg/mL | ≥ 100 µg/mL | 32 µg/mL | 16 µg/mL | 8 µg/mL | Active | Active | Active | Active | Active | Active | Active | Active | Active
OC(Cn1cncn1)(Cn1cncn1)c1ccc(F)cc1F [FLUCONAZOLE] | – | – | – | – | – | – | 1 µg/mL | – | – | – | – | – | – | – | – | –
CN[C@H](CC(C)C)C(=O)N[C@H]1C(=O)N[C@@H](CC(N)=O)C(=O)N[C@H]2C(=O)N[C@H]3C(=O)N[C@H](C(=O)N[C@H](C(=O)O)c4cc(O)cc(O)c4-c4cc3ccc4O)[C@H](O)c3ccc(c(Cl)c3)Oc3cc2cc(c3O[C@@H]2O[C@H](CO)[C@@H](O)[C@H](O)[C@H]2O[C@H]2C[C@](C)(N)[C@H](O)[C@H](C)O2)Oc2ccc(cc2Cl)[C@H]1O [VANCOMYCIN] | – | – | – | – | – | 0.5 µg/mL | – | – | – | – | – | – | – | – | – | –
CO/N=C(\C(=O)N[C@@H]1C(=O)N2C(C(=O)O)=C(CSc3nc(=O)c(O)nn3C)CS[C@H]12)c1csc(N)n1 [CEFTRIAXONE] | 8 µg/mL | 8 µg/mL | 2 µg/mL | 2 µg/mL | – | – | – | – | – | – | – | – | – | – | – | –
COC(=O)[C@H]1[C@H](C)O[C@@]2(O)[C@H](C)CC[C@@]3(C)OC(=O)C=C(C(C)C)[C@@H]3C[C@H](O)/C(C)=C/[C@H]12 | ≥ 100 µg/mL | ≥ 100 µg/mL | ≥ 100 µg/mL | ≥ 100 µg/mL | ≥ 100 µg/mL | ≥ 100 µg/mL | ≥ 100 µg/mL | – | – | – | – | – | – | – | – | –
C/C1=C\[C@H]2/C(=C(/C)CC[C@@]3(CO)C(=O)C=C(C(C)C)[C@@H]3CC1)OC(=O)[C@@H]2[C@H](C)O | ≥ 100 µg/mL | ≥ 100 µg/mL | ≥ 100 µg/mL | ≥ 100 µg/mL | ≥ 100 µg/mL | ≥ 100 µg/mL | ≥ 100 µg/mL | – | – | – | – | – | – | – | – | –
